This is an account of results in US9833445B2, “5-deutero-2,4-thiazolidinedione derivatives and compositions comprising and methods of using the same” (DeuteRx, LLC, priority 2013, dated 2017).

Data set [1] can be described thus: In vitro stability (D/H exchange, enantiomerization, degradation) in human plasma. It counts as in vitro ADME. The settings on record: 37° C.; for half-life: human, plasma (K3EDTA), calculated half-life. As for the experimental part:
(§1) (+)-5-({p-[2-(5-ethylpyridin-2-yl)-2-oxoethoxy]phenyl}methyl)-1,3-thiazolidine-2,4-dione, (−)-5-({p-[2-(5-ethylpyridin-2-yl)-2-oxoethoxy]phenyl}methyl)-1,3-thiazolidine-2,4-dione, rac-5-({p-[2-(5-ethylpyridin-2-yl)-2-oxoethoxy]phenyl}methyl)-(5-^2H))-1,3-thiazolidine-2,4-dione (>98% deuterium at C-5 of the 1,3-thiazolidine-2,4-dione moiety; 50:50 racemic mixture of (+)- and (−)-deuterated enantiomers) were incubated in CD-1 mouse plasma (K3EDTA as anticoagulant) or human plasma (K3EDTA as anticoagulant) at 37° C. in duplicates. Aliquots (50 μL) were removed at t=0, 0.0833, 0.25, 0.5, 1, 2, 4, 8, and 16 hours and added to micro centrifuge tubes containing 10 μL of 5% w/v zinc sulfate heptahydrate in water. Samples were frozen and stored until the study was complete. After thawing on ice, 10 μL of internal standard (ISTD) spiking solution (d4-pioglitazone in acetonitrile/water 1:1) were added followed by 250 μL of methyl t-butyl ether (MTBE). A 100 μL aliquot of the organic layer was evaporated after homogeneization and reconstituted in 100 μL of 95:5 acetonitrile/0.1% formic acid in water (v/v).
(§2) The samples were analyzed semi-quantitatively by LC/MS-MS with elution on a chiral column (Daicel ChiralPak ID-3) for the separation of enantiomers (isocratic method of 5:95 v/v 0.1% formic acid in water and acetonitrile). Peak areas for the protonated and deuterated enantiomers were calculated and normalized to the area of the ISTD. Peak areas for the deuterated enantiomers (+)-5-({p-[2-(5-ethylpyridin-2-yl)-2-oxoethoxy]phenyl}methyl)-(5-2H)-1,3-thiazolidine-2,4-dione and (−)-5-({p-[2-(5-ethylpyridin-2-yl)-2-oxoethoxy]phenyl}methyl)-(5-^2H)-1,3-thiazolidine-2,4-dione were further corrected for the isotopic peak of the corresponding protonated enantiomer, (+)- and (−)-5-({p-[2-(5-ethylpyridin-2-yl)-2-oxoethoxy]phenyl}methyl)-1,3-thiazolidine-2,4-dione respectively, if present. Corrected data were analyzed and plotted using Microsoft Excel 2013 (Microsoft Corp, Redmond, Wash.) and the Excel Solver.
(§3) Scheme 3 illustrates the possible reactions in a solution of a deuterated racemate. The deuterium at the chiral center of both enantiomers, d+ and d−, can be depleted by D/H exchange to give both protonated enantiomers, h+ and h− with rate constants kD++, kD+−, kD−+, kD−. At the same time, the protonated enantiomers h+ and h−, can exchange, with enantiomerization rate constants k+− and k−+. All four compounds can also degrade with potentially different degradation rate constants kh+d, kh−d, kd+d, kd−d for enantiomers h+, h−, d+, and d−, respectively.
(§4) Human plasma stability data and mouse plasma stability data were analyzed independently. Concurrent analysis of the data for h+, h−, and deuterated racemate was performed. Calculated concentrations were obtained through numerical approximation of differential equations (1) and (2) for the stability studies of h+ and h- and equations (3) to (6) for the stability study of deuterated racemate (50:50 d+:d−) by the Euler method (equation (7)). The step between calculated time points was minimized in order to minimize the local error (proportional to the square of the step size) and the global error (proportional to the step size). […] Data analysis was performed in Microsoft Excel 2013, using the Solver Generalized Reduced Gradient Nonlinear method with central derivatives to minimize the sum of sums of weighted Δ^2, square of difference between ISTD-normalized experimental data and calculated value, divided by the calculated value.
(§5) [formula] [formula] [formula] [formula] where [h+], [h−], [d+], [d−] are the concentrations on both protonated and deuterated enantiomers, k+− and k−+ are the rate constants for the enantiomerization reactions h+ to h− and h− to h+ respectively, kD++, kD+−, kD−+, and kD− are the rate constants for the D/H exchange reactions d+ or d− to h+ or h−, and kd is the rate constant for the degradation of all four compounds. […]

Data set [2] in a line: In vitro stability (D/H exchange, enantiomerization, degradation) in CD-1 mouse plasma. It counts as in vitro ADME. The settings on record: 37° C.; for half-life: CD-1, mouse, plasma (K3EDTA), calculated half-life. As for the experimental part:
as §1, §2, §3, §4, §5

Setting [3] is: read-out: t1/2 degradation (converted).
Setting [4] is: read-out: t1/2 enantiomerization +− (h+ to h−) (converted).
[5] abbreviates: read-out: t1/2 enantiomerization −+ (h− to h+) (converted).

Turning to `[2H]C1(Cc2ccc(OCC(=O)c3ccc(CC)cn3)cc2)SC(=O)NC1=O` (racemic) [d-rac, rac-5-({p-[2-(5-ethylpyridin-2-yl)-2-oxoethoxy]phenyl}methyl)-(5-^2H)-1,3-thiazolidine-2,4-dione], the “k d (rate constant, degradation; assumed equal for all four compounds)” value in data set [1] (fitted to Equations 1 to 6) was 1.05e-06 s⁻¹; in data set [2] (fitted to Equations 1 to 6), 4.25e-06 s⁻¹. The half-life in data set [1] (setting [3]) is 184 h; in data set [2] (setting [3]), 45.4 h.

`CCc1ccc(C(=O)COc2ccc(CC3SC(=O)NC3=O)cc2)nc1` (single isomer, unassigned; (+)) [h+, (+)-5-({p-[2-(5-ethylpyridin-2-yl)-2-oxoethoxy]phenyl}methyl)-1,3-thiazolidine-2,4-dione]: the “k +− (rate constant, enantiomerization h+ to h−)” value in data set [1] (fitted to Equations 1 to 6) stood at 0.308 h⁻¹; in data set [2] (fitted to Equations 1 to 6) it was 0.504 h⁻¹. Further, the “k d (rate constant, degradation; assumed equal for all four compounds)” value in data set [1] (fitted to Equations 1 to 6) stood at 1.05e-06 s⁻¹; in data set [2] (fitted to Equations 1 to 6), 4.25e-06 s⁻¹. For the same compound, the half-life in data set [1] (setting [3]) was 184 h; in data set [1] (setting [4]) it was 2.2 h; in data set [2] (setting [3]), 45.4 h; in data set [2] (setting [4]), 1.4 h.

With `CCc1ccc(C(=O)COc2ccc(CC3SC(=O)NC3=O)cc2)nc1` (single isomer, unassigned; (-)) [h−, (−)-5-({p-[2-(5-ethylpyridin-2-yl)-2-oxoethoxy]phenyl}methyl)-1,3-thiazolidine-2,4-dione], the “k −+ (rate constant, enantiomerization h− to h+)” value in data set [1] (fitted to Equations 1 to 6) was determined as 0.359 h⁻¹; in data set [2] (fitted to Equations 1 to 6), 0.594 h⁻¹. The half-life in data set [1] (setting [5]) is 1.9 h; in data set [2] (setting [5]) it was 1.2 h.
